Converted amounts (≈) assume the structure as drawn. Where two headings read alike, the source gives them in different places.
Assays:
[1] = system: Trypanosoma cruzi (Tulahuen C4); experiment: In vitro anti-T. cruzi activity (β-galactosidase CPRG colorimetric assay in VERO monolayer); format: cell-based; settings: Trypanosoma cruzi, TULAHUEN, Vero; for inhibition at 10 µg/mL: 120 h, 10 μg/mL of each compound, 120 hours, read-out: T. cruzi Inhib. (%)
peritoneal macrophages = experiment: Toxicity to peritoneal macrophages (Trypan Blue count); format: cell-based, BALB/C mouse
Method: Peritoneal macrophages were prepared as follows. Non-inflammatory macrophages (10^6) were collected from each BALB/C mouse. The cells adhered at 37° C. after 2 h under 5% CO2 in a CO2 incubator. The plates were then rinsed two to three times with 0.5 mL of RPMI+buffer MOPS without fetal calf serum to eliminate non-adhering cells. The supernatant on the plates was replaced by fresh medium (RPMI+glutamine+FCS+antibiotics), 0.5 mL of medium per well. To determine the toxicity of the compounds to macrophages, dilutions of compounds were added on a part of the macrophages prepared above. […] The medium was then removed and 1 μL of sterile Trypan Blue was added. Cover glasses N° 1 were left where cells were plated and then the number of macrophages in a microscope was determined with a haemocytometer. All experiments were performed in triplicate.

[2] = system: axenic amastigotes of L. amazonensis (strain MHOM/BR/76/LTB-012); experiment: microbe, parasite or virus in culture; settings: Leishmania amazonensis, 72 h, read-out: IC50 L. amazonensis
[3] = Cytotoxicity on VERO cells (MTT), anti-T. cruzi study; settings: African green monkey
VERO cells [4] = experiment: as above; settings: for IC50: Chlorocebus sabaeus, Vero
3T3 cells = experiment: Cell growth inhibition bioassay (sulforhodamine B); format: cell-based, mouse; settings: 48 h, SRB
Method: (§1) The cytotoxicity of compounds was assayed as follows. […] Appropriate solvent controls were tested for comparison. The percent inhibition of cell growth relative to the control was evaluated colorimetrically using a sulforhodamine B dye by comparison to the control. The calorimetric procedure followed that published in Skehan et al., J. Nat. Cancer Inst., […], pp. 1107-1112 (1990) and Boyd & Paull, Drug Dev. Res., Vol. 34, pp. 91-109 (1995). […] The cell lines are: 3T3 cells are BALB/3T3 clone A31 embryonic mouse fibroblast cells; H460 cells are human large cell lung cancer cells; DU145 cells are human prostate carcinoma cells; MCF-7 cells are human breast adenocarcinoma cells; M-14 cells are human melanoma cells; HT-29 cells are human colon adenocarcinoma cells; PC3 cells are human prostate adenocarcinoma cells; K562 cells are human chronic myelogenous leukemia cells; and VERO cells are African Green Monkey kidney epithelial cells.

DU145 cells = experiment: Cell growth inhibition bioassay (sulforhodamine B); format: cell-based, human; settings: 48 h, SRB
Method: as §1

H460 cells = experiment: Cell growth inhibition bioassay (sulforhodamine B); format: cell-based, human; settings: 48 h, SRB
Method: as §1

HT-29 cells = experiment: Cell growth inhibition bioassay (sulforhodamine B); format: cell-based, human; settings: 48 h, SRB
Method: as §1

K562 cells = experiment: Cell growth inhibition bioassay (sulforhodamine B); format: cell-based, human; settings: 48 h, SRB
Method: as §1

M-14 cells = experiment: Cell growth inhibition bioassay (sulforhodamine B); format: cell-based, human; settings: 48 h, SRB
Method: as §1

MCF-7 cells = experiment: Cell growth inhibition bioassay (sulforhodamine B); format: cell-based, human; settings: 48 h, SRB
Method: as §1

VERO cells [5] = experiment: Cell growth inhibition bioassay (sulforhodamine B); format: cell-based, African Green Monkey; settings: 48 h, SRB
Method: as §1

M. tuberculosis H37Rv = experiment: Conventional aerobic (MABA) culture assay, luminescence MIC; format: cell-based, Mycobacterium tuberculosis; settings: aerobic, 7 days, H37Rv
[6] = system: axenic amastigotes of L. amazonensis (strain MHOM/BR/76/LTB-012); settings: read-out: L. amazonensis IC50; Table 8b
[7] = Table 2, read-out: IC50 - T. cruzi
[8] = Table 3, read-out: IC50 T. cruzi
[9] = Mus musculus, Peritoneal macrophage, 48 h, Table 7, read-out: IC50 Macrophage
[10] = VERO cells, IC50 - VERO Cytotoxicity, Table 2

Row | SMILES | inhibition at 10 µg/mL [1] [%] | IC50 [1, 7] [µg/mL] | IC50 [1, 8] [µM] | IC50 (peritoneal macrophages; [9]) [µM] | IC50 [2] [µM] | IC50 [3, 10] [µg/mL] | IC50 (VERO cells [4]; read-out: IC50 VERO, Table 3) [µM] | further results
1 | C=CCOc1cc(OC)c(C(=O)/C=C/c2ccccc2)c(OCC=C)c1 [Compound I-08, (2E)-1-[2-Methoxy-4,6-bis(2-propenyloxy)phenyl]-3-(phenyl)-2-propen-1-one] | 71.5 | 6.7 | 17.1 | 14.8 | 9.4 | 6 (≈ 17.1 µM) |  | IC50 (VERO cells [4]; read-out: IC50 VERO): 17.1 µM
2 | C=CCOc1cc(OC)c(C(=O)/C=C/c2cccc(OC)c2)c(OCC=C)c1 [Compound I-11, (2E)-1-[2-Methoxy-4,6-bis(2-propenyloxy)phenyl]-3-(3-methoxyphenyl)-2-propen-1-one] | 72.4 | 5.37 | 14.2 | 13.1 | 8.7 | 54 (≈ 142 µM) | 142 | 
3 | C=CCOc1cc(OC)c(C(=O)/C=C/c2ccc(C(F)(F)F)cc2)c(OCC=C)c1 [Compound I-12, (2E)-1-[2-Methoxy-4,6-bis(2-propenyloxy)phenyl]-3-[4-(trifluoromethyl)phenyl]-2-propen-1-one] | 64.2 | 6.53 | 15.6 |  | 128 | 3 (≈ 7.17 µM) | 7.2 | 
4 | C=CCOc1cc(OC)c(C(=O)/C=C/c2ccc([N+](=O)[O-])cc2)c(OCC=C)c1 [Compound I-13, (2E)-1-[2-Methoxy-4,6-bis(2-propenyloxy)phenyl]-3-(4-nitrophenyl)-2-propen-1-one] | 68.6 | 1.62 | 4.1 | 13.2 | 8.3 | 5 (≈ 12.6 µM) | 12.6 | 
5 | C=CCOc1cc(OC)c(C(=O)/C=C/c2ccc(Cl)cc2)c(OCC=C)c1 [Compound I-14, (2E)-3-(4-Chlorophenyl)-1-[2-methoxy-4,6-bis(2-propenyloxy)phenyl]-2-propen-1-one] | 66.3 | 3.3 | 8.6 | 13 | 9.4 | 4 (≈ 10.4 µM) | 10.4 | 
6 | C=CCOc1cc(OC)c(C(=O)/C=C/c2ccccc2F)c(OCC=C)c1 [Compound I-15, (2E)-3-(2-Fluorophenyl)-1-[2-methoxy-4,6-bis(2-propenyloxy)phenyl]-2-propen-1-one] | 66.5 | 2.29 | 6.2 | 13.3 | 9.5 | 6 (≈ 16.3 µM) | 16.3 | 
7 | C=CCOc1cc(OC)c(C(=O)/C=C/c2ccccc2Br)c(OCC=C)c1 [Compound I-16] | 63.4 | 5.95 | 13.9 |  | 7.9 |  |  | IC50 (peritoneal macrophages; Mus musculus, Peritoneal macrophage, 48 h, read-out: IC50 Macrophage): 5.4 µM; IC50 [3]: 6 µg/mL (≈ 14 µM); IC50 (VERO cells [4]; read-out: IC50 VERO): 13.9 µM
8 | C=CCOc1cc(OC)c(C(=O)/C=C/c2ccc(OC)cc2OC)c(OCC=C)c1 [Compound I-17, (2E)-3-(2,4-Dimethoxyphenyl)-1-[2-methoxy-4,6-bis(2-propenyloxy)phenyl]-2-propen-1-one] | 67.8 | 5.38 | 13.1 |  | 134 | 38 (≈ 92.6 µM) | 92.6 | 
9 | C=CCOc1cc(OC)c(C(=O)/C=C/c2cc(OC)c(OC)c(OC)c2)c(OCC=C)c1 [Compound I-20, (2E)-1-[2-Methoxy-4,6-bis(2-propenyloxy)phenyl]-3-(3,4,5-trimethoxyphenyl)-2-propen-1-one] | 76.1 | 1.5 | 3.4 | 12 | 8.2 | 18 (≈ 40.9 µM) | 40.9 | 
10 | C=CCOc1cc(OC)c(C(=O)/C=C/c2ccc(F)cc2)c(OCC=C)c1 [Compound I-23, (2E)-3-(4-Fluorophenyl)-1-[2-methoxy-4,6-bis(2-propenyloxy)phenyl]-2-propen-1-one] | 66.5 | 5.27 | 14.3 | 13.8 | 9.5 | 5 (≈ 13.6 µM) | 13.6 | 
11 | C=CCOc1cc(OC)c(C(=O)/C=C/c2ccc(C)cc2)c(OCC=C)c1 [Compound I-24, (2E)-1-[2-Methoxy-4,6-bis(2-propenyloxy)phenyl]-3-(4-methylphenyl)-2-propen-1-one] | 60.2 | 6.28 | 17.2 |  | 79.8 | 77 (≈ 211 µM) | 211 | 
12 | C=CCOc1cc(OC)c(C(=O)/C=C/c2cc(OCC=C)c(Br)c(OCC=C)c2)c(OCC=C)c1 [Compound I-25, (2E)-3-(3,5-Bis(2-propenyloxy)-4-bromophenyl)-1-[2-methoxy-4,6-bis(2-propenyloxy)phenyl]-2-propen-1-one] | 51.2 | 3.73 | 6.9 |  | > 180 | 52 (≈ 96 µM) | 96.3 | 
13 | C=CCOc1cc(OC)c(C(=O)/C=C/c2ccncc2)c(OCC=C)c1 [Compound I-26, (2E)-1-[2-Methoxy-4,6-bis(2-propenyloxy)phenyl]-3-(4-pyridinyl)-2-propen-1-one] | 73.6 | 0.52 | 1.5 |  | 0.6 | 1 (≈ 2.85 µM) | 2.8 | 
14 | C=CCOc1cc(OC)c(C(=O)/C=C/c2ccco2)c(OCC=C)c1 [Compound I-28, (2E)-3-(2-furanyl)-1-[2-methoxy-4,6-bis(2-propenyloxy)phenyl]-2-propen-1-one] | 59.1 | 4.14 | 12.2 |  | > 300 | 65 (≈ 191 µM) | 191 | 
15 | Cc1ccc(C=NNc2ncnc3sc4c(c23)CCCC4)cc1 [II-05] |  |  |  |  |  |  |  | GI50 in indicated cell line: 3T3 (3T3 cells): 12.1 µg/mL (≈ 37.5 µM); GI50 in indicated cell line: DU145 (DU145 cells): >62.5 µg/mL; GI50 in indicated cell line: H460 (H460 cells): 42.9 µg/mL (≈ 133 µM); GI50 in indicated cell line: HT-29 (HT-29 cells): >62.5 µg/mL; GI50 in indicated cell line: K562 (K562 cells): 2.3 µg/mL (≈ 7.13 µM); GI50 in indicated cell line: M-14 (M-14 cells): >62.5 µg/mL; GI50 in indicated cell line: MCF-7 (MCF-7 cells): 4.2 µg/mL (≈ 13 µM); GI50 in indicated cell line: VERO (VERO cells [5]): 10.0 µg/mL (≈ 31 µM); MIC MABA (M. tuberculosis H37Rv): >100 µg/mL; IC50 (peritoneal macrophages): 6.3 µM; IC50 [6]: 13.7 µM; Cytotoxicity VERO Lab B (VERO cells [4]; Lab B): 11.0

— patent US9061984B2 (University of Louisville Research Foundation, Inc., priority 2008, dated 2015)
